# Measured values as given in article PMC4823954, “From fighting depression to conquering tumors: a novel tricyclic thiazepine compound as a tubulin polymerization inhibitor” (Cell Death & Disease, 2016).
# Assays:
# [1] = tested on: EGFR(L747-T751del,Sins); assay: KINOMEscan; format: binding, human
# [2] = target: T1, ABL1(Q252H)-phosphorylated (Homo sapiens, UniProt P00519, Q252H); assay: KINOMEscan; format: binding; details: read-out: % Ctrl
# T1 construct: purchased DiscoveRx KINOMEscan
# [3] = mouse, in vivo
# Description: Five injections of vehicle and TBPT (30 or 60 mg/kg) were administered intravenously at days 1, 3, 5, 7 and 9 (arrows). Four injections of PTX (10 mg/kg) were administered intravenously at days 1, 3, 5 and 7. (a) The tumor volume was measured every other day. When the tumor volume in the solvent-treated group exceeded 1500 mm^3, the experiment was terminated. (b) Blood biochemical and hematological analyses. (c) The body weights of the mice were monitored every other day during the experiments. *P<0.05, Student's t-test with day 0, N=5
# Figure 3 Histopathological examination of the major organs from TBPT or PTX-treated mouse tumor at the end of the experiments. The cross-sections of organs were stained with hematoxylin–eosin. […] The scale bars represent 50 μm and are uniform in each column
# H460 and H460TaxR cells (5 × 10^6 cells in 100 μl PBS) were injected subcutaneously into the dorsal flank of each mouse. When the tumors reached volumes of 100 mm^3, the mice were divided randomly into four groups. The mice were treated every other day five times with intravenous injections of (1) vehicle (the solvent of TBPT: 60% PBS, 8% Cremophor EL, 8% EtOH, 12% poly propylene glycol and 12% PEG-400), (2) TBPT (30 mg/kg) or (3) TBPT (60 mg/kg). Another group was treated with PTX (10 mg/kg) every other day four times as the positive control. The tumor dimensions and body weights were measured every other day. The tumor volume was calculated according to a standard formula: volume=width^2 × length/2. The experiment was terminated and the mice were killed when the tumor volumes in the solvent-treated group exceeded 1500 mm^3. The mouse organs and blood were collected and used for hematoxylin–eosin staining and serum chemistry assay. TGI rates were assessed using the following formula: TGI=1− (Tt−T0)/(Ct−C0) × 100%. Tt and T0 indicate the tumor volumes of the treated group at days t and 0. Ct and C0 indicate the tumor volumes of the control group at days t and 0, respectively.
# [4] = target: T2, KIT(L576P) (Homo sapiens, UniProt P10721, L576P); assay: KINOMEscan; format: binding; details: read-out: % Ctrl
# T2 construct: purchased DiscoveRx KINOMEscan
# [5] = tested on: Caco-2; assay: Caco-2 cell bi-directional transport assay; format: in vitro ADME; details: Caco-2
# Source text: (§1) As in vivo investigations are generally time consuming and expensive, it is advantageous to eliminate those compounds that are not suitable for animal experiments. One of the necessary steps is to screen the initial hits using assays testing their possible behaviors in vivo. To evaluate the drug-like properties of TBPT, a panel of in vitro assays was preformed (Table 1). The parallel artificial membrane permeability assay (PAMPA) was used to evaluate the cell permeability of the compounds. Compounds with a Pe >[…] are classified as highly permeable. […] The Caco-2 assay was used to predict the oral absorption values of the compounds in vivo. Compounds with a Caco-2 efflux ratio >2 may be subject to active efflux and should not be developed further. […] The half-life (T1/2) in human liver microsomes is used to predict the metabolism properties of compounds in vivo. […] A very long T1/2 (>24 h) increases the risk of cumulative toxicity and is not desirable. […] T1/2 in plasma indicates the stability of the drug in human blood; the high T1/2 values of these compounds indicated better stability in vivo. Plasma protein binding influences the distribution of drugs into body tissues, and compounds with high plasma protein binding (>99%) are limited in terms of the amount of free compound that are available to act on the targeted tissue.
# The PAMPA and Caco-2 cell bi-directional transport assay of the derivatives were conducted as described in our previous report.[65], [66] The human liver microsome, plasma stability and plasma protein-binding assays were conducted following modified protocols reported by Cyprotex (Macclesfield, UK).[67], [68], [69], [70]
# [6] = human liver microsome stability; format: in vitro ADME; details: liver microsomes, read-out: T1/2 in human liver microsome (converted)
# Source text: as §1, with “tissue. […]” for “tissue.”
# [7] = tested on: NHFB cells; assay: Cell cycle and apoptosis analysis; format: cell-based, human; details: 2 μM
# [8] = target: T3, PFPK5(P.falciparum) (Plasmodium falciparum, UniProt P61075); assay: KINOMEscan; format: binding; details: read-out: % Ctrl
# T3 construct: purchased DiscoveRx KINOMEscan
# Outline: (§2)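 Competition binding panel of 442 non-mutant kinases: test compound at 5 and 10 μM competed with an active-site-directed ligand for 1 h with shaking. Bound kinase was eluted with 0.5 μM ligand and quantified by qPCR; %Ctrl = (compound − positive control)/(DMSO − positive control) × 100, lower meaning tighter binding.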
# [9] = target: T4, YES (Homo sapiens, UniProt P07947); assay: KINOMEscan; format: binding; details: read-out: % Ctrl
# T4 construct: purchased DiscoveRx KINOMEscan
# Outline: as §2
# [10] = target: T5, EPHA7 (Homo sapiens, UniProt Q15375); assay: KINOMEscan; format: binding; details: read-out: % Ctrl
# T5 construct: purchased DiscoveRx KINOMEscan
# Outline: as §2
# [11] = target: T6, ABL1-phosphorylated (Homo sapiens, UniProt P00519); assay: KINOMEscan; format: binding; details: read-out: % Ctrl
# T6 construct: purchased DiscoveRx KINOMEscan
# Outline: as §2
# [12] = target: T7, PDPK1 (Homo sapiens, UniProt O15530); assay: KINOMEscan; format: binding; details: read-out: % Ctrl
# T7 construct: purchased DiscoveRx KINOMEscan
# Outline: as §2
# [13] = target: T8, MST2 (Homo sapiens, UniProt Q13188); assay: KINOMEscan; format: binding; details: read-out: % Ctrl
# T8 construct: purchased DiscoveRx KINOMEscan
# Outline: as §2
# [14] = target: T9, PRKD1 (Homo sapiens, UniProt Q15139); assay: KINOMEscan; format: binding; details: read-out: % Ctrl
# T9 construct: purchased DiscoveRx KINOMEscan
# Outline: as §2
# [15] = target: T10, TEC (Homo sapiens, UniProt P42680); assay: KINOMEscan; format: binding; details: read-out: % Ctrl
# T10 construct: purchased DiscoveRx KINOMEscan
# Outline: as §2
# [16] = target: T11, DYRK1A (Homo sapiens, UniProt Q13627); assay: KINOMEscan; format: binding; details: read-out: % Ctrl
# T11 construct: purchased DiscoveRx KINOMEscan
# Outline: as §2
# [17] = target: T12, TAK1 (Homo sapiens, UniProt O43318); assay: KINOMEscan; format: binding; details: read-out: % Ctrl
# T12 construct: purchased DiscoveRx KINOMEscan
# Outline: as §2
# [18] = target: T13, YSK1 (Homo sapiens, UniProt O00506); assay: KINOMEscan; format: binding; details: read-out: % Ctrl
# T13 construct: purchased DiscoveRx KINOMEscan
# Outline: as §2
# [19] = target: T14, PHKG1 (Homo sapiens, UniProt Q16816); assay: KINOMEscan; format: binding; details: read-out: % Ctrl
# T14 construct: purchased DiscoveRx KINOMEscan
# Outline: as §2
# [20] = target: T15, PRP4 (Homo sapiens, UniProt Q13523); assay: KINOMEscan; format: binding; details: read-out: % Ctrl
# T15 construct: purchased DiscoveRx KINOMEscan
# Outline: as §2
# [21] = target: T16, PRKD2 (Homo sapiens, UniProt Q9BZL6); assay: KINOMEscan; format: binding; details: read-out: % Ctrl
# T16 construct: purchased DiscoveRx KINOMEscan
# Outline: as §2
# [22] = target: T17, PAK7 (Homo sapiens, UniProt Q9P286); assay: KINOMEscan; format: binding; details: read-out: % Ctrl
# T17 construct: purchased DiscoveRx KINOMEscan
# Outline: as §2
# [23] = target: T18, HIPK3 (Homo sapiens, UniProt Q9H422); assay: KINOMEscan; format: binding; details: read-out: % Ctrl
# T18 construct: purchased DiscoveRx KINOMEscan
# Outline: as §2
# [24] = target: T19, CDKL3 (Homo sapiens, UniProt Q8IVW4); assay: KINOMEscan; format: binding; details: read-out: % Ctrl
# T19 construct: purchased DiscoveRx KINOMEscan
# Outline: as §2
# [25] = tested on: FLT3(ITD); assay: KINOMEscan; format: binding, human
# Description: The binding assay for 442 non-mutant kinases was performed using KINOMEscan (DiscoveRx Corporation, Fremont, CA, USA) as reported previously.[58], [59] TBPT was screened at concentrations of 5 and 10 μM to identify the affected kinases. KINOMEscan is based on a competition reaction that quantitatively measures the ability of a test compound to compete with an active site-directed ligand for binding to the kinase active site. […] After the assay plates were incubated with shaking for 1 h, the liganded beads were washed with washing buffer (1 × PBS and 0.05% Tween 20). Then, the beads were re-suspended in elution buffer (1 × PBS, 0.05% Tween 20, and 0.5 μM ligand) and incubated with shaking for 30 min. The kinase concentration in the eluates was measured via qPCR. The results are represented as ‘%Ctrl', which was calculated using the following formula: (test compound signal–positive control signal)/(DMSO signal–positive control signal) × 100%. A lower % Ctrl indicates stronger binding to the kinase active site.
# T2 sequence (P10721 26-976 L576P): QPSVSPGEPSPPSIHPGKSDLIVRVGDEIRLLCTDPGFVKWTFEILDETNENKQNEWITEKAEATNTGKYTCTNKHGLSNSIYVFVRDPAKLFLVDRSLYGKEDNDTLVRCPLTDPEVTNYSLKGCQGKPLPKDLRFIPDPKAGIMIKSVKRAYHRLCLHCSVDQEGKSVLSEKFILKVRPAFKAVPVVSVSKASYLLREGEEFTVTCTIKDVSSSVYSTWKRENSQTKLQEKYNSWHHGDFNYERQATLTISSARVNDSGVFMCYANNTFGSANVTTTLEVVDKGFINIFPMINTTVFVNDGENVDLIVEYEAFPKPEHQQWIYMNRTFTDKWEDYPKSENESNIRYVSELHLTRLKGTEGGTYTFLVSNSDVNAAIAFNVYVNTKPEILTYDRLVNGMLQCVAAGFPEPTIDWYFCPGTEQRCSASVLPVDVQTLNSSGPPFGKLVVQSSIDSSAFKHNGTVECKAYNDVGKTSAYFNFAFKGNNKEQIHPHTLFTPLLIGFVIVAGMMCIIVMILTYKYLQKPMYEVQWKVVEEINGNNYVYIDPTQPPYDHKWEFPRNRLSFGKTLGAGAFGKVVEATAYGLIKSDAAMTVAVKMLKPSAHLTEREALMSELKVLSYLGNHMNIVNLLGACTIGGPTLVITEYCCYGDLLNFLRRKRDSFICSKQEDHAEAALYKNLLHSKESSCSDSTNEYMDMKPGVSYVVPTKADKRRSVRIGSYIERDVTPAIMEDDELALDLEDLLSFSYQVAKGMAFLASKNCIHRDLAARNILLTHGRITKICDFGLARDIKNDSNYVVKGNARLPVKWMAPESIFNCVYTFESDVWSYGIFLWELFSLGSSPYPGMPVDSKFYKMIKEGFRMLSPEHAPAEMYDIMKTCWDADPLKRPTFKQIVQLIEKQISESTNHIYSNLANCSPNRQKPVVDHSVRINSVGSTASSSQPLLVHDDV
# T3 sequence (P61075 whole entry): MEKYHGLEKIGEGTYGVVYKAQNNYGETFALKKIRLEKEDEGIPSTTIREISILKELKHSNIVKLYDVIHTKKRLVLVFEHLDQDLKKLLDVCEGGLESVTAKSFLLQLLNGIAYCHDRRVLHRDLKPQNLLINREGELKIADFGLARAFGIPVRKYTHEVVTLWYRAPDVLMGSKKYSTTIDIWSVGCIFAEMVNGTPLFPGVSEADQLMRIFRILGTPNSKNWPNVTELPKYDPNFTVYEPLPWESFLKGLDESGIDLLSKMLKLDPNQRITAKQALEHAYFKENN
# T18 sequence (Q9H422 whole entry): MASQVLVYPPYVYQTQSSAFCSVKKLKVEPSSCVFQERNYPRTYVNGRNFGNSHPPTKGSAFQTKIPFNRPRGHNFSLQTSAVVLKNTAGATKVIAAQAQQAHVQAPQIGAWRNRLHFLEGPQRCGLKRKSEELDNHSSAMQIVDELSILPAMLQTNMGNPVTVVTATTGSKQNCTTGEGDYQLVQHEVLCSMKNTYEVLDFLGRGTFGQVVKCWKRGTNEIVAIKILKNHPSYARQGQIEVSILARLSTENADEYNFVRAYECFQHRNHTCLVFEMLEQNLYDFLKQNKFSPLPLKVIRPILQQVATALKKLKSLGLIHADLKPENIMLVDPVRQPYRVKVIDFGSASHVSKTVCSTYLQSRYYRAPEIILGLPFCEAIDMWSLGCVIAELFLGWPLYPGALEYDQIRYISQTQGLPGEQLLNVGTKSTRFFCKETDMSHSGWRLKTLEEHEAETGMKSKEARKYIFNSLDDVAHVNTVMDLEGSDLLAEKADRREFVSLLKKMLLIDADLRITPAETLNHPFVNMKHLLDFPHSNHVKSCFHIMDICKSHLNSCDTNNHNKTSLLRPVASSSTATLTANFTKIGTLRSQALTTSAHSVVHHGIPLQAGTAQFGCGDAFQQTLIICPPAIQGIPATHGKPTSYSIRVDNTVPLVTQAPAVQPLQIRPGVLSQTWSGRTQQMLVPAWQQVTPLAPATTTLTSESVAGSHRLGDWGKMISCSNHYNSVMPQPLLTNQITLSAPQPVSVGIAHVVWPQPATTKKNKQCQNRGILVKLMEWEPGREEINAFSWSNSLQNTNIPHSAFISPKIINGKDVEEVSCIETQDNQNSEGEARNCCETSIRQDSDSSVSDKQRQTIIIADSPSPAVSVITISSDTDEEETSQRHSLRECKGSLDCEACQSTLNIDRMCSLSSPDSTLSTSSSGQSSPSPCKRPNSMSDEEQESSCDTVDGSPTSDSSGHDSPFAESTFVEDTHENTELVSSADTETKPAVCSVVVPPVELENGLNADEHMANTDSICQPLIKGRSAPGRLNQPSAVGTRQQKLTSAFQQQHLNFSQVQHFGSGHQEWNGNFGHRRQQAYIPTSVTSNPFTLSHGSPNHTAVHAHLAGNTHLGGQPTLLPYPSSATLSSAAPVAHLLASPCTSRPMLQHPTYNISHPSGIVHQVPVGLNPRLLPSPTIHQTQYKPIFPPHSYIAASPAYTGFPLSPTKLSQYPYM
# T5 sequence (Q15375 28-998): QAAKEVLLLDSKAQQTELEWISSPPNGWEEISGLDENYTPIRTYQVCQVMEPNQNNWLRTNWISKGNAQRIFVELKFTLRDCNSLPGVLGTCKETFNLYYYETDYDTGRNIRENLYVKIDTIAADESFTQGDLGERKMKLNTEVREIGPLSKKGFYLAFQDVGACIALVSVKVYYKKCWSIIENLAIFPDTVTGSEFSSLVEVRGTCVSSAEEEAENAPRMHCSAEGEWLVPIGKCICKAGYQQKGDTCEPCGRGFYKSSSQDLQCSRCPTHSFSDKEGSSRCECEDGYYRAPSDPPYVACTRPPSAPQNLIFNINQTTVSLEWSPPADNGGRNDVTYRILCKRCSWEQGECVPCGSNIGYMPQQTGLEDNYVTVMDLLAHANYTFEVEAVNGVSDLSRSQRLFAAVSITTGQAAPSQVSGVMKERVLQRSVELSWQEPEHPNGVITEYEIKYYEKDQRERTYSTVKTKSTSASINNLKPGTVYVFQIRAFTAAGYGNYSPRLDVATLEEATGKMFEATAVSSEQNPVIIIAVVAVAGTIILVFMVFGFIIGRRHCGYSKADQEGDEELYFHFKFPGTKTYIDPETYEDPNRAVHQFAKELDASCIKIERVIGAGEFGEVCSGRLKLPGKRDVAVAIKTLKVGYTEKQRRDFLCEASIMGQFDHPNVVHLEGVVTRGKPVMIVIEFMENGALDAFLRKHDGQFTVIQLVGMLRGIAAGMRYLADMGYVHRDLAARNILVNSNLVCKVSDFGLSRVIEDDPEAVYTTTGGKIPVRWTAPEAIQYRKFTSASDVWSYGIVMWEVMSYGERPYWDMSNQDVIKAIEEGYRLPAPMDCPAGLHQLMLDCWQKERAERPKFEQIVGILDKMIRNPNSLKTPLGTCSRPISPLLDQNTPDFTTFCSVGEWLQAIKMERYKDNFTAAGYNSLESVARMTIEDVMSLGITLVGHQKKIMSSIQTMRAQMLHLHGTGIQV
# T14 sequence (Q16816 whole entry): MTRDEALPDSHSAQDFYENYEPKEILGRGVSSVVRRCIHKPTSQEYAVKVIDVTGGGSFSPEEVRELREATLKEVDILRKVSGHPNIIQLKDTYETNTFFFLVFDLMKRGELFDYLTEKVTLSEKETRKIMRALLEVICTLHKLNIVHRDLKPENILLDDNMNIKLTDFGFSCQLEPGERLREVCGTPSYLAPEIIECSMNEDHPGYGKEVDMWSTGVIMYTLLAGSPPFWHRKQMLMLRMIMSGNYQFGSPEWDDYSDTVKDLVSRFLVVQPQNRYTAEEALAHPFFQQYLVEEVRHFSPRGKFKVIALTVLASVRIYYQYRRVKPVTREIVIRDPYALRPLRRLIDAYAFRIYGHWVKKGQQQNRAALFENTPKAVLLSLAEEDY
# T12 sequence (O43318 whole entry): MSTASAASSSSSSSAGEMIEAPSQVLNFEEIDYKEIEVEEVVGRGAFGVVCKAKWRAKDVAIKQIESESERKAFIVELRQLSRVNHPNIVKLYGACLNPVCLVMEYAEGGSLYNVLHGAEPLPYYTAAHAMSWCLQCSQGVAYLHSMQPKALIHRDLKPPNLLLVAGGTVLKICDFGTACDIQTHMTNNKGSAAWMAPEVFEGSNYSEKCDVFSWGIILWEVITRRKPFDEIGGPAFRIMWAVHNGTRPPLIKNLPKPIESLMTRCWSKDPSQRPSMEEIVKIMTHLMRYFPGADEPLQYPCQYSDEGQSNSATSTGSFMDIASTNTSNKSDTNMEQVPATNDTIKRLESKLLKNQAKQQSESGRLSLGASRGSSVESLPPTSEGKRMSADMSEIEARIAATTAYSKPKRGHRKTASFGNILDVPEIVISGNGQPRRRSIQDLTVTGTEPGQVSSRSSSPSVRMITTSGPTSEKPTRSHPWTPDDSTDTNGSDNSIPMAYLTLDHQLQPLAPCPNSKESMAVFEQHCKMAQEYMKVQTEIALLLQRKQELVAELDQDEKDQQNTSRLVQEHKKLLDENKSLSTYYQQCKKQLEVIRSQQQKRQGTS
# T10 sequence (P42680 whole entry): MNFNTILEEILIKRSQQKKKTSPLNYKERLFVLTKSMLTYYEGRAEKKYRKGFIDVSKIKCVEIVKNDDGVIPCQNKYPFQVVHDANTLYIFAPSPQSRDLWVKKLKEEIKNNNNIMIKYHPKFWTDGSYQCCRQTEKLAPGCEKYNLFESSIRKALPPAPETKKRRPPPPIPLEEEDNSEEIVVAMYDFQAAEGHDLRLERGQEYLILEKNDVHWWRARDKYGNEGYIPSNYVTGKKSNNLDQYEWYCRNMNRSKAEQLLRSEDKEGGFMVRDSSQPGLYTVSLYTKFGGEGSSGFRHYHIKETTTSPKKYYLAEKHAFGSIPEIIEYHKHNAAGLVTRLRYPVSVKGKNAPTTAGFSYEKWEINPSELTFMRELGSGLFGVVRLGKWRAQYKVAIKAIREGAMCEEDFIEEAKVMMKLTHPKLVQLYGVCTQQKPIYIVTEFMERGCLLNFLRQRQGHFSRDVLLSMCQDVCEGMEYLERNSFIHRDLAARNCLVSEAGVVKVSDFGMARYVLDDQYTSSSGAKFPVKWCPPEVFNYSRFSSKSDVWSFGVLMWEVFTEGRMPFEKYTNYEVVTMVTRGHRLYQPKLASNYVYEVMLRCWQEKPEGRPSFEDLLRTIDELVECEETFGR
compound,measurement,setting,value
"Cc1ccc(C2=Nc3cccnc3S(=O)(=O)c3ccccc32)cc1 [TBPT, 6-(p-tolyl)benzo[f] pyrido[2,3-b][1,4] thiazepine 11,11-dioxide]",% Ctrl,[1]; 5 μM,88%
same,% Ctrl,[1]; 10 μM,98%
same,remaining binding at 5 µM,[2]; 5 μM,83%
same,remaining binding at 10 µM,[2]; 10 μM,100%
same,histopathological examination of the major organs,[3],No pathological changes were observed
same,remaining binding at 5 µM,[4]; 5 μM,78%
same,remaining binding at 10 µM,[4]; 10 μM,100%
same,Efflux ratio (B2A/A2B),[5],0.59±0.17
same,half-life,[6],5.18 ± 0.69 h
same,cell cycle arrest or apoptosis,[7],very little cell cycle arrest or apoptosis
same,remaining binding at 5 µM,[8]; 5 μM,97%
same,remaining binding at 10 µM,[8]; 10 μM,97%
same,remaining binding at 5 µM,[9]; 5 μM,100%
same,remaining binding at 10 µM,[9]; 10 μM,100%
same,remaining binding at 5 µM,[10]; 5 μM,93%
same,remaining binding at 10 µM,[10]; 10 μM,100%
same,remaining binding at 5 µM,[11]; 5 μM,72%
same,remaining binding at 10 µM,[11]; 10 μM,97%
same,remaining binding at 5 µM,[12]; 5 μM,100%
same,remaining binding at 10 µM,[12]; 10 μM,100%
same,remaining binding at 5 µM,[13]; 5 μM,63%
same,remaining binding at 10 µM,[13]; 10 μM,100%
same,remaining binding at 5 µM,[14]; 5 μM,100%
same,remaining binding at 10 µM,[14]; 10 μM,78%
same,remaining binding at 5 µM,[15]; 5 μM,90%
same,remaining binding at 10 µM,[15]; 10 μM,99%
same,remaining binding at 5 µM,[16]; 5 μM,88%
same,remaining binding at 10 µM,[16]; 10 μM,100%
same,remaining binding at 5 µM,[17]; 5 μM,87%
same,remaining binding at 10 µM,[17]; 10 μM,93%
same,remaining binding at 5 µM,[18]; 5 μM,99%
same,remaining binding at 10 µM,[18]; 10 μM,100%
same,remaining binding at 5 µM,[19]; 5 μM,100%
same,remaining binding at 10 µM,[19]; 10 μM,94%
same,remaining binding at 5 µM,[20]; 5 μM,99%
same,remaining binding at 10 µM,[20]; 10 μM,100%
same,remaining binding at 5 µM,[21]; 5 μM,100%
same,remaining binding at 10 µM,[21]; 10 μM,100%
same,remaining binding at 5 µM,[22]; 5 μM,78%
same,remaining binding at 10 µM,[22]; 10 μM,95%
same,remaining binding at 5 µM,[23]; 5 μM,100%
same,remaining binding at 10 µM,[23]; 10 μM,100%
same,remaining binding at 5 µM,[24]; 5 μM,77%
same,remaining binding at 10 µM,[24]; 10 μM,74%
same,% Ctrl,[25]; 5 μM,95%
same,% Ctrl,[25]; 10 μM,100%
